In general, inhibition refers to the share of the control response that was lost under treatment.

In the experiment the target is T1, recombinant human mPGES-1 (Homo sapiens, UniProt O14684).
T1 construct: made in house; host or cells: Rosetta E. coli (microsomal/membrane fraction)
T1 sequence (O14684 1-152): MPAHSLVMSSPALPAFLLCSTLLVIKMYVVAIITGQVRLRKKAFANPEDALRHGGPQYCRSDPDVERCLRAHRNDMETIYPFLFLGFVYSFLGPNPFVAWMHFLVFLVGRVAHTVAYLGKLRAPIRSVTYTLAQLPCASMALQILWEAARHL
In words: mPGES-1 inhibition test (microsomes, HTRF detection of PGE2). The experiment is classed as biochemical. The protocol: Microsomes from Rosetta E. coli bacteria expressing recombinant human mPGES-1 is dissolved in 0.1 M KPi pH 7.4 buffer containing 2.5 mM GSH. 50 μl of the enzyme is subsequently dispensed in a 384-well plate. 0.5 μl of the inhibitor dissolved in DMSO at is thereafter added to each well and incubated for 25 minutes at room temperature.
Subsequently, 2 μl of PGH2 dissolved in an appropriate solvent is added to each well and after one minute the acidified stop solution containing FeCl2 is added. 4 μl of the total volume is transferred to a separate plate and diluted 750-fold in two separate steps before HTRF detection of PGE2.
The HTRf detection is performed by the use of a commercially available kit from CisBio essentially according to the manufacturer's protocol. Briefly, 10 μl of the diluted sample is transferred to a white 384-well plate. 5 μl of d2 and 5 μl Eu3+-Cryptate labeled anti-PGE2 is added to each well containing samples by the use of a Multidrop. The plate is covered with a plastic self-adhesive film, centrifuged at 1200 rpm for 1 minute and subsequently stored at +4° C. over night.
After over night incubation the fluorescence is measured by the use of an appropriate microplate reader. The fluorescence of europium cryptate, and d2 are measured using the following excitation and emission wavelength, europium cryptate: λmax^ex=307 nm, λmax^em=620 nm and d2: λmax^ex=620 nm, λmax^em=665 nm), respectively. The extent of the specific FRET is measured as a ratio of the emission intensity at 665 nm vs. that at 620 nm. A standard curve using synthetic PGE2 is used to quantify the amount of PGE2 in unknown samples.
In general terms: In TR-FRET formats the signal depends on donor and acceptor labels being close together.
In the case of `Cn1c(Nc2c(Cl)cccc2Cl)nc2cc(C(=O)Nc3cc(C(F)(F)F)ccn3)ncc21` [Example 364, 2-(2,6-Dichlorophenylamino)-3-methyl-N-(4-trifluoromethyl-pyridin-2-yl)-3H-imidazo[4,5-c]pyridine-6-carboxamide], the inhibition at 10 µM came out at 100%.

On to `O=C(Nc1ccc(C(F)(F)F)cn1)c1cc2[nH]c(Nc3c(Cl)cccc3Cl)nc2cn1` [Example 720, 2-(2,6-Dichlorophenylamino)-N-(5-trifluoromethyl-pyridin-2-yl)-1H-imidazo[4,5-c]pyridine-6-carboxamide], for which the inhibition at 10 µM is 100%.

Consider `O=C(Nc1ccc(Br)cc1)c1cc2[nH]c(Nc3c(Cl)cncc3Cl)nc2cn1` [Example 732, 2-(3,5-Dichloro-pyridin-4-yl-amino)-N-(4-bromo-phenyl)-1H-imidazo[4,5-c]pyridine-6-carboxamide], for which the inhibition at 10 µM was 100%.

As for `Cn1c(Nc2c(Cl)cccc2Cl)nc2cc(C(=O)Nc3ccc(Br)cc3)ncc21` [Example 365, N-(4-Bromophenyl)-2-(2,6-dichlorophenylamino)-3-methyl-3H-imidazo[4,5-c]pyridine-6-carboxamide], the inhibition at 10 µM stood at 100%.

On to `Cn1c(Nc2c(Cl)cccc2Cl)nc2cc(C(=O)N[C@H]3CC[C@H](C(F)(F)F)CC3)ncc21` [Example 424, 2-(2,6-Dichlorophenylamino)-3-methyl-N-((1r,4r)-4-trifluoromethyl-cyclohexyl)-3H-imidazo[4,5-c]pyridine-6-carboxamide], for which the inhibition at 10 µM worked out at 100%.

In the case of `O=C(N[C@H]1CC[C@H](C(F)(F)F)CC1)c1cc2[nH]c(Nc3c(Cl)cccc3Cl)nc2cn1` [Example 481, 2-(2,6-Dichlorophenylamino)-N-((1r,4r)-4-trifluoromethyl-cyclohexyl)-1H-imidazo[4,5-c]pyridine-6-carboxamide], the inhibition at 10 µM was determined as 98%.

As for `Cc1cc(NC(=O)c2cc3nc(Nc4c(Cl)cccc4Cl)n(C)c3cn2)ncc1Cl` [Example 726, 2-(2,6-Dichlorophenylamino)-3-methyl-N-(5-chloro-4-methyl-pyridin-2-yl)-3H-imidazo[4,5-c]pyridine-6-carboxamide], the inhibition at 10 µM was determined as 100%.

As to `Cc1cc(NC(=O)c2cc3[nH]c(Nc4c(Cl)cccc4Cl)nc3cn2)ncc1Cl` [Example 718, 2-(2,6-Dichlorophenylamino)-N-(5-chloro-4-methyl-pyridin-2-yl)-1H-imidazo[4,5-c]pyridine-6-carboxamide], the inhibition at 10 µM was found to be 100%.

With `Cc1cnc(NC(=O)c2cc3[nH]c(Nc4c(Cl)cccc4Cl)nc3cn2)cc1C` [Example 717, 2-(2,6-Dichlorophenylamino)-N-(4,5-dimethyl-pyridin-2-yl)-1H-imidazo[4,5-c]pyridine-6-carboxamide], the inhibition at 10 µM came out at 100%.

For `CN(C)c1cc(C(F)(F)F)cc(NC(=O)c2cc3[nH]c(Nc4c(Cl)cncc4Cl)nc3cn2)n1` [Example 739, 2-(3,5-Dichloro-pyridin-4-yl-amino)-N-(6-dimethylamino-4-trifluoromethyl-pyridin-2-yl)-1H-imidazo[4,5-c]pyridine-6-carboxamide], the inhibition at 10 µM amounted to 100%.

`O=C(NCC(F)(F)C(F)(F)C(F)(F)C(F)(F)C(F)(F)C(F)(F)C(F)(F)F)c1cc2[nH]c(Nc3c(Cl)cccc3Cl)nc2cn1` [Example 721, 2-(2,6-Dichlorophenylamino)-N-(2,2,3,3,4,4,5,5,6,6,7,7,8,8,8-pentadecafluoro-octyl)-1H-imidazo[4,5-c]pyridine-6-carboxamide]: the inhibition at 10 µM stood at 100%.

Consider `O=C(Nc1cc(OC2CCOC2)ccn1)c1cc2[nH]c(Nc3c(Cl)cccc3Cl)nc2cn1` (centres unmarked) [Example 495, 2-(2,6-Dichlorophenylamino)-N-(4-(tetrahydrofuran-3-yl-oxy)-pyridin-2-yl)-1H-imidazo[4,5-c]pyridine-6-carboxamide], for which the inhibition at 10 µM is 86%.

With `Cn1c(Nc2c(F)cccc2Cl)nc2cc(C(=O)N[C@H]3CC[C@H](C(F)(F)F)CC3)ncc21` [Example 431, 2-(2-Chloro-6-fluorophenylamino)-3-methyl-N-((1r,4r)-4-trifluoromethyl-cyclohexyl)-3H-imidazo[4,5-c]pyridine-6-carboxamide], the inhibition at 10 µM was determined as 100%.

As for `Cc1cnc(NC(=O)c2cc3[nH]c(Nc4c(Cl)cccc4Cl)nc3cn2)cc1Cl` [Example 427, N-(4-Chloro-5-methyl-pyridin-2-yl)-2-(2,6-dichlorophenylamino)-1H-imidazo[4,5-c]pyridine-6-carboxamide], the inhibition at 10 µM came to 98%.

As to `Cn1c(Nc2c(Cl)cncc2Cl)nc2cc(C(=O)Nc3ccc(Br)cc3)ncc21` [Example 472, N-(4-Bromophenyl)-2-(3,5-dichloropyridin-4-ylamino)-3-methyl-3H-imidazo[4,5-c]-pyridine-6-carboxamide], the inhibition at 10 µM amounted to 96%.

On to `Cn1c(Nc2c(Cl)cncc2Cl)nc2cc(C(=O)Nc3cc(C(F)(F)F)ccn3)ncc21` [Example 482, 2-(3,5-Dichloropyridin-4-ylamino)-3-methy-N-(4-trifluoromethyl-pyridin-2-yl)-3H-imidazo[4,5-c]pyridine-6-carboxamide], for which the inhibition at 10 µM came to 98%.

On to `CC1(C)CCC(NC(=O)c2cc3nc(Nc4c(Cl)cccc4Cl)[nH]c3cn2)CC1` [Example 83, 2-(2,6-Dichloro-phenylamino)-3H-imidazo[4,5-c]pyridine-6-carboxylic acid (4,4-dimethyl-cyclohexyl)-amide], for which the inhibition at 10 µM was found to be 100%.

For `CC(C)(C)c1ccnc(NC(=O)c2cc3[nH]c(Nc4c(Cl)cccc4Cl)nc3cn2)c1` [Example 396, N-(4-tert.-Butyl-pyridin-2-yl)-2-(2,6-dichlorophenylamino)-1H-imidazo[4,5-c]pyridine-6-carboxamide], the inhibition at 10 µM amounted to 100%.

Turning to `O=C(Nc1cc(C(F)(F)F)ccn1)c1cc2[nH]c(Nc3c(F)cccc3Cl)nc2cn1` [Example 729, 2-(2-Chloro-6-fluoro-phenylamino)-N-(4-trifluoromethyl-pyridin-2-yl)-1H-imidazo[4,5-c]pyridine-6-carboxamide], the inhibition at 10 µM turned out to be 100%.

With `O=C(Nc1cc(C(F)(F)F)cc(C2CC2)n1)c1cc2[nH]c(Nc3c(Cl)cncc3Cl)nc2cn1` [Example 740, 2-(3,5-Dichloro-pyridin-4-yl-amino)-N-(6-cyclopropyl-4-trifluoromethyl-pyridin-2-yl)-1H-imidazo[4,5-c]pyridine-6-carboxamide], the inhibition at 10 µM is 100%.

Take `O=C(Nc1ccc(Br)cc1)c1cc2[nH]c(Nc3c(Cl)cccc3Cl)nc2cn1` [Example 722, 2-(2,6-Dichlorophenylamino)-N-(4-bromo-phenyl)-1H-imidazo[4,5-c]pyridine-6-carboxamide]: the inhibition at 10 µM was 100%.

For `Cn1c(Nc2c(F)cccc2Cl)nc2cc(C(=O)NC3CCC4(CC3)CC4)ncc21` [Example 417, 2-(2-Chloro-6-fluoro-phenylamino)-3-methyl-N-(spiro[2.5]octan-6-yl)-3H-imidazo[4,5-c]pyridine-6-carboxamide], the inhibition at 10 µM turned out to be 100%.

On to `Cc1cc(C(F)(F)F)cc(NC(=O)c2cc3[nH]c(Nc4c(Cl)cccc4Cl)nc3cn2)n1` [Example 723, 2-(2,6-Dichlorophenylamino)-N-(6-methyl-4-trifluoromethyl-pyridin-2-yl)-1H-imidazo[4,5-c]pyridine-6-carboxamide], for which the inhibition at 10 µM stood at 100%.

These data come from patent US8598190B2, “3H-imidazo [4, 5-C] pyridine-6-carboxamides as anti-inflammatory agents” (Boehringer Ingelheim International GmbH, priority 2008, dated 2013).
